From publication PMC11389391, “Acetylation of SAMHD1 at lysine 580 is crucial for blocking HIV-1 infection” (mBio, 2024)
pEC50: −log10 of the molar value.

Target: T1, SAMHD1_114-626 (Homo sapiens, UniProt Q9Y3Z3)
T1 construct: gene SAMHD1; purified recombinant residues 114-626 (HD domain and C-terminus, SAM domain removed); monomer without nucleotides, tetramer with GTP/dTTP
Experiment: 1H NMR dTTP hydrolysis rate versus GTP concentration
Type: biochemical
Description: 1H NMR dTTP hydrolysis rate versus GTP concentration on SAMHD1_114-626 | we determine the EC50^GTP (half-maximal effective concentration) and kcat

T1 sequence (Q9Y3Z3 114-626): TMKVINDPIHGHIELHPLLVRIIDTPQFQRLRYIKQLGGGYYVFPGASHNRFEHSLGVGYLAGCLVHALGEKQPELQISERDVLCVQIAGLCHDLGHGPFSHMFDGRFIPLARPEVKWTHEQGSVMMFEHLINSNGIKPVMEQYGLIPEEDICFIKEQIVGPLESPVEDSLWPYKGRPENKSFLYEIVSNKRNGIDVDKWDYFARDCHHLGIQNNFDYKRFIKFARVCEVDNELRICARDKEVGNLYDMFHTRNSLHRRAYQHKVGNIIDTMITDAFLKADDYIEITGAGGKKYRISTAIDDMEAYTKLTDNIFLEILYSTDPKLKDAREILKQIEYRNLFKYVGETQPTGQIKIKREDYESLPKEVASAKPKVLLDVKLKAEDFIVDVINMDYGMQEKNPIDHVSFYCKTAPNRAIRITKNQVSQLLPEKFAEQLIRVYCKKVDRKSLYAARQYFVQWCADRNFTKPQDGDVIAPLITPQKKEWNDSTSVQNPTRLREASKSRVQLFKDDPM

With `Nc1nc2c(ncn2[C@@H]2O[C@H](COP(=O)(O)OP(=O)(O)OP(=O)(O)O)[C@@H](O)[C@H]2O)c(=O)[nH]1` [GTP] the pEC50 was 5.77.
